Measured values reported in article PMC9683047, “Design, synthesis and biological evaluation of 4-aminoquinoline derivatives as receptor-interacting protein kinase 2 (RIPK2) inhibitors” (Journal of Enzyme Inhibition and Medicinal Chemistry, 2022).

Tests used:
[1] = target: T1, AO oxidase (Homo sapiens, UniProt Q06278); experiment: AO oxidative metabolism in human liver cytosol; type: in vitro ADME; conditions: human liver cytosol incubation; inhibitors raloxifene and menadione
T1 construct: could undergo mono oxidative metabolism in the human liver cytosol incubation system; from tissue; host or cells: human liver cytosol
T1 sequence (Q06278 whole entry): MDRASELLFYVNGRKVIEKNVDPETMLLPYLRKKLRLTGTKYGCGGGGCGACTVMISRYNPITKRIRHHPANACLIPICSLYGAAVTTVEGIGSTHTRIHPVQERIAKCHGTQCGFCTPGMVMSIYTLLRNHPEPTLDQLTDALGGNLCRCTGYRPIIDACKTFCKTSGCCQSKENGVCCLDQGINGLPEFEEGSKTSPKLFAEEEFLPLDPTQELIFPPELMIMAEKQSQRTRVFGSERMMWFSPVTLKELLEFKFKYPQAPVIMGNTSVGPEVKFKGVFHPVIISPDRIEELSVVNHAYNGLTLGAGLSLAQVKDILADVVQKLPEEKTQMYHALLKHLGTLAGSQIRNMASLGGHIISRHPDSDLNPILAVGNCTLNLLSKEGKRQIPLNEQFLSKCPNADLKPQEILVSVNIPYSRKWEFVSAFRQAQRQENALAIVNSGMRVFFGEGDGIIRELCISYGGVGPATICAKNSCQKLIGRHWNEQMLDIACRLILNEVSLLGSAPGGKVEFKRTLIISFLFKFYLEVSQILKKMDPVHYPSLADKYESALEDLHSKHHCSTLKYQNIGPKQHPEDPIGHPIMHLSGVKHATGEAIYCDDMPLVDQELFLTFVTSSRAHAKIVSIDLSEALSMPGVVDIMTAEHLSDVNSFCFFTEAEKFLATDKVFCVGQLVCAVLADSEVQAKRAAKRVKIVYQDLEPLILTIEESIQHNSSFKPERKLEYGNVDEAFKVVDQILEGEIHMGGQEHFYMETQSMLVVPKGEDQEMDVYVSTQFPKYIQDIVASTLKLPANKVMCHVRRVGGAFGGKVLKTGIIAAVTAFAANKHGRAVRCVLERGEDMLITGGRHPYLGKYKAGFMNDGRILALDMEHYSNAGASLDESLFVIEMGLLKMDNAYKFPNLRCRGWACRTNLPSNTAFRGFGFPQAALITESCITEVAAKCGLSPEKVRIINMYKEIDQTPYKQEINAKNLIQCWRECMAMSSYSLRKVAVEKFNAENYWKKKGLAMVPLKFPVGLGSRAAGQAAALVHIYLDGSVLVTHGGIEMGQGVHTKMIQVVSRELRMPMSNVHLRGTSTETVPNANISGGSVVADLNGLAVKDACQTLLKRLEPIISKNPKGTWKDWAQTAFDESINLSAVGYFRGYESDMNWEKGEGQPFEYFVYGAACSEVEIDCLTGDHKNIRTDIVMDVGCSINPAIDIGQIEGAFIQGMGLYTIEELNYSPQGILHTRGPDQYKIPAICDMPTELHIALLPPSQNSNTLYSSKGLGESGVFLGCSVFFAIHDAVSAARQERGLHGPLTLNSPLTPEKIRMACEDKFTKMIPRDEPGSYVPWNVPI
Experimental: However, we have done experiment on AO oxidative metabolism of compound 14 and P5. Both compound 14 and P5 could undergo mono oxidative metabolism in the human liver cytosol incubation system.

[2] = target: T2, RIPK2 (Homo sapiens, UniProt O43353); experiment: RIPK2 kinase inhibition assay (ADP-Glo); type: biochemical; conditions: mean ± SD from two separate experiments
T2 construct: purchased Promega
T2 sequence (O43353 whole entry): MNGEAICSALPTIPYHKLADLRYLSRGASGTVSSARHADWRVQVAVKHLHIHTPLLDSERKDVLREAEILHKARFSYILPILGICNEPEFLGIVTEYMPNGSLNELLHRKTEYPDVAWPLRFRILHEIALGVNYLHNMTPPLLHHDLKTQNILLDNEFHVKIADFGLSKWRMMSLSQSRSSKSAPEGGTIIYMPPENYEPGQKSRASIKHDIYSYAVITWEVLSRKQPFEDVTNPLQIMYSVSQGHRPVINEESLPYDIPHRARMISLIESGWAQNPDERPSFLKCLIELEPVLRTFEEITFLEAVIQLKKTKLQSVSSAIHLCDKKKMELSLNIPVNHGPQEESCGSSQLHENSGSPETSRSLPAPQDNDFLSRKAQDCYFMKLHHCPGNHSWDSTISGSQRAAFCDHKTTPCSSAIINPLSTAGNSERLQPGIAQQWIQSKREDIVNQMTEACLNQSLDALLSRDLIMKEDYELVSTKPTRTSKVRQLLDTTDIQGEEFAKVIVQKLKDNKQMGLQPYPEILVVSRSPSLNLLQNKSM
Experimental: RIPK2 kinase activity was analysed using the ADP-Glo™ Assay Kit (RIPK2 Kinase Enzyme System, Promega, USA). Reactions were performed according to the instructions. Specific signal was calculated by subtracting values in the wells without protein and inhibitor from the values in the test wells.

[3] = target: T2, RIPK2; experiment: Lipophilic ligand efficiency (LipE); conditions: LipE = pIC50 − ClogP
[4] = target: T3, RIPK1 (Homo sapiens, UniProt Q13546); experiment: RIPK1 inhibition rate at 1 µM; type: biochemical
T3 sequence (Q13546 1-671): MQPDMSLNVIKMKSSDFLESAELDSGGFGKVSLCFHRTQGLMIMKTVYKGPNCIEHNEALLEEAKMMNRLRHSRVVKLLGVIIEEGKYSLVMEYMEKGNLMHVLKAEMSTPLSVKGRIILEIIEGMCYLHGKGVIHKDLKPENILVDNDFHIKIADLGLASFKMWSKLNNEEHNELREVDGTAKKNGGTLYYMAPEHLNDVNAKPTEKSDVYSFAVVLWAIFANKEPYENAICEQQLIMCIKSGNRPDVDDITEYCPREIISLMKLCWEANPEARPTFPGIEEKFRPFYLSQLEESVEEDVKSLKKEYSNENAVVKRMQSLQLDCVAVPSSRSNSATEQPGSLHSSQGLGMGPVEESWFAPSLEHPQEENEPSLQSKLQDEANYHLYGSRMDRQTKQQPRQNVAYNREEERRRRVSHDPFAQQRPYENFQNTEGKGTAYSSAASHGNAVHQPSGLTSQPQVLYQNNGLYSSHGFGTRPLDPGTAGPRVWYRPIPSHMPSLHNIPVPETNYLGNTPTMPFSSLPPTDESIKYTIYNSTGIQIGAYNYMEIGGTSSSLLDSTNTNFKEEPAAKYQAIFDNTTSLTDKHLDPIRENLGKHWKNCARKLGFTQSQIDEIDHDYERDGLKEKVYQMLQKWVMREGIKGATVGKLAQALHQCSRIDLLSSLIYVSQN
Experimental: Table 4. Selectivity, ClogP and LipE of compound 14, 15, 21, 32, 36. | column: RIPK1 IR@1µM (%)

[5] = tested on: MDP-induced TNF-α secretion in Raw264.7; experiment: TNF-α secretion in MDP-induced Raw264.7 (ELISA); type: cell-based, mouse; conditions: Raw264.7, compounds 1 h then L18-MDP 20 µg/mL 24 h, series concentration
Experimental: Raw 264.7 was cultured in DMEM containing 10% (w/v) foetal bovine serum (FBS). Cell were seeded at a density of 1 × 10^5 cells/well in a 48 well plate overnight, then cells were treated with different concentrations of compounds for1h, following by stimulated with L18-MDP (20 µg/mL, Invivogen) for 24 h. The Cell supernatants were harvested for enzyme-linked immunosorbent assay (ELISA).
TNFα commercial ELISA kits (DAKEWE) were used to detect TNFα in cell culture supernatants according to the manufacturer’s instructions. The concentration of cytokines was determined using multiwell spectrophotometer (SpetraMAX PLUS, Molecular Devices).

SMILES	AO oxidase substrate [1]	IC50 [2] [nM]	LipE [3]	RIPK1 IR@1µM (%) [4] [%]	inhibition of MDP-induced TNF-α secretion [5]
CC(C)(C)S(=O)(=O)c1cc2c(Nc3ccc4scnc4c3)ncnc2cc1OCCO [Compound P5, reference compound]	metabolic substrates of AO oxidase	2.6 ± 1.2	6.70	–	–
c1cncc(-c2ccc3nccc(Nc4ccc5scnc5c4)c3c2)c1 [Compound 15, N-(6-(pyridin-3-yl)quinolin-4-yl)benzo[d]thiazol-5-amine]	–	6 ± 1.5	4.27	<1	almost no inhibition
